# Test results from ChEMBL document CHEMBL3045316, “Synthesis and analgesic activity of new heterocyclic compounds derived from monoterpenoids” (Med Chem Res, 2013).
# Legend:
# Mus musculus [1] = assay: Analgesic activity in albino Mus musculus (mouse) assessed as protection against thermal stimulus-induced paw licking and jumping behaviour at 10 mg/kg, po measured after 1 hr by hot plate assay; type: functional
# Mus musculus [2] = assay: Analgesic activity in albino Mus musculus (mouse) assessed as inhibition of acetic acid-induced abdominal writhings at 10 mg/kg, po administered 1 hr before acetic acid injection measured for 5 to 8 min; type: functional; settings: Abdomen
# Mus musculus [3] = assay: Selectivity index, ratio of LD50 for albino Mus musculus (mouse) to ED50 for albino Mus musculus (mouse) by acetic acid-induced writhing test
# Mus musculus [4] = assay: Analgesic activity in albino Mus musculus (mouse) assessed as proportion of animals without pain behaviour symptoms at 10 mg/kg, po administered 1 hr before acetic acid injection measured for 5 to 8 min; type: functional
# Mus musculus [5] = assay: Selectivity index, ratio of LD50 for albino Mus musculus (mouse) to ED50 for albino Mus musculus (mouse) by hot-plate test
# [6] = Acute toxicity in albino Mus musculus (mouse) assessed as mortality administered intragastrically by kreber method; type: organism-based; settings: in vivo, po
# Mus musculus [7] = assay: Analgesic activity in po dosed albino Mus musculus (mouse) assessed as protection against thermal stimulus-induced paw licking and jumping behaviour measured after 1 hr by hot plate assay; type: functional
# Mus musculus [8] = assay: Analgesic activity in po dosed albino Mus musculus (mouse) assessed as inhibition of acetic acid-induced abdominal writhings administered 1 hr before acetic acid injection measured for 5 to 8 min; type: functional; settings: Abdomen
compound,measurement,setting,value
COc1ccc([C@H]2O[C@@]3(C)C[C@H](c4ccc(OC)c(OC)c4OC)O[C@H]4C(=O)[C@H](C)[C@H]2C[C@H]43)c(OC)c1OC,Activity,Mus musculus [1],9%
same,inhibition in vivo at 10 mg/kg,Mus musculus [2],23%
COc1cc([C@@H]2CC(C)(C)[C@@H]3CC=C(C)[C@@H](O)[C@@H]3O2)cc(OC)c1OC,Activity,Mus musculus [1],16%
same,inhibition in vivo at 10 mg/kg,Mus musculus [2],13%
CC(=O)Oc1ccccc1C(=O)O [ASPIRIN],Ratio LD50/ED50,Mus musculus [3],10.3
COc1cc([C@H]2O[C@@]3(C)C[C@H](c4cc(OC)c(OC)c(OC)c4)O[C@H]4C(=O)[C@H](C)[C@H]2C[C@H]43)cc(OC)c1OC,Activity,Mus musculus [1],19%
same,Activity,Mus musculus [4],25%
same,inhibition in vivo at 10 mg/kg,Mus musculus [2],50%
COc1cc([C@@H]2C[C@@]3(C)O[C@H]4C(C)=CC[C@@H]3[C@H]4O2)cc(OC)c1OC,Ratio LD50/ED50,Mus musculus [5],60
same,Ratio LD50/ED50,Mus musculus [3],60
same,LD50,[6],500 mg/kg
same,ED50,Mus musculus [7],25 mg/kg
same,ED50,Mus musculus [8],22 mg/kg
same,Activity,Mus musculus [1],72%
same,Activity,Mus musculus [4],25%
same,inhibition in vivo at 10 mg/kg,Mus musculus [2],65%
O=C([O-])Cc1ccccc1Nc1c(Cl)cccc1Cl.[Na+] [DICLOFENAC SODIUM],Activity,Mus musculus [1],64%
same,Activity,Mus musculus [4],87.5%
same,inhibition in vivo at 10 mg/kg,Mus musculus [2],90%
